The values below come from US10508120B2, “TYK2 inhibitors and uses thereof” (Nimbus Lakshmi, Inc., priority 2017, dated 2019).

The target in test [1] is JAK2 kinase domain (JH1) (Homo sapiens (Human), UniProt O60674). Put plainly: JAK2 Radioactive Kinase Assay. The test is classed as biochemical. To be noted: for inhibition at 10 µM: read-out: JAK2 JH1% Inhibition @ 10 μM. As for the experimental part: (§1) The Tyk2 and JAK2 radioactive kinase assay measures the percent inhibition at the Tyk2 kinase domain (DH1) and the percent inhibition at the JAK2 kinase domain (JH1). Results of the assay are expressed as percent inhibition at 10 μM.

Test [2] deals with Tyk2 kinase domain (DH1) (Homo sapiens (Human), UniProt P29597). Briefly: Tyk2 Radioactive Kinase Assay. The test is classed as biochemical. To be noted: for inhibition at 10 µM: read-out: Tyk2 JH1% Inhibition @ 10 μM. As for the experimental part: as §1
Test [3] addresses human TYK2 (JH2domain-pseudokinase) (Homo sapiens (Human), UniProt P29597). Put plainly: TYK2 JH2 Domain Binding Assay (KINOMEscan). In a few lines:
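Competition binding of an NFkB-DBD fusion of human TYK2 JH2 (G556–D888), expressed in HEK293 and used as crude extract at <0.1 nM, against immobilized ligand beads; 1 h at room temperature in PBS/Tween/DTT/BSA buffer, 0.9% DMSO.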

The structures appear in SMILES notation. pKd: −log10 of the molar value. Like-named read-outs stand apart in the source and are kept apart here.

Sequence of human TYK2 (JH2domain-pseudokinase) (P29597 556-888): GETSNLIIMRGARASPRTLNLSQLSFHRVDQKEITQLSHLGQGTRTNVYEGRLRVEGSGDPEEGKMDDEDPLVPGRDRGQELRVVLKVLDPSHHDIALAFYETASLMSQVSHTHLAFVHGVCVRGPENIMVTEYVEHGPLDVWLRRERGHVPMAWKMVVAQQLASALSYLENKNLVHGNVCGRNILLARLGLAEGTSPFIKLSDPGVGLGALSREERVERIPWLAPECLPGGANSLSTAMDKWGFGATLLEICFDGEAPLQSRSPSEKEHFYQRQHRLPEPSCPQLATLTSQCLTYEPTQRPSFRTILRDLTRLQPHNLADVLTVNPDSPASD
Sequence of JAK2 kinase domain (JH1) (O60674 849-1124): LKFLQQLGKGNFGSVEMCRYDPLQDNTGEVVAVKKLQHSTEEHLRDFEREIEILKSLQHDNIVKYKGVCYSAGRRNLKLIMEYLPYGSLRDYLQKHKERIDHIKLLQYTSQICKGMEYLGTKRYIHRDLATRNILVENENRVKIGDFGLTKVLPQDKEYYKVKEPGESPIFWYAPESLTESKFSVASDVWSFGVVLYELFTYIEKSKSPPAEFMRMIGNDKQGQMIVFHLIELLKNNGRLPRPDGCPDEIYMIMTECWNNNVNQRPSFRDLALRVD
Sequence of Tyk2 kinase domain (DH1) (P29597 897-1176): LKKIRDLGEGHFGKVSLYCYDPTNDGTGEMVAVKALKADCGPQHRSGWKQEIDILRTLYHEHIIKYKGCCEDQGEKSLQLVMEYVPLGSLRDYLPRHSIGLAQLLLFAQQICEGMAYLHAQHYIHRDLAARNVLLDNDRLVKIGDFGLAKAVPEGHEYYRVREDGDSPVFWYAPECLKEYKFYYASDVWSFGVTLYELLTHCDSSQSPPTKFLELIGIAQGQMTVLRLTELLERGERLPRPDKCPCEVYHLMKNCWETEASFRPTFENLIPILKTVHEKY

The term inhibition denotes how much of the control response was suppressed. In general, pKd refers to the Kd on a negative log10 scale, so that one unit is a factor of ten. Regarding `CNc1cc(Nc2cccn([C@H]3CCN(C)C[C@@H]3F)c2=O)nc2c(C(=O)NC3CC3)cnn12` [I-608], the inhibition at 10 µM in test [1] (compound at 10 μM, ATP 10 μM) is < 50%; in test [2] (compound at 10 μM, ATP 10 μM), < 50%. In addition, in test [3], the pKd was > 9.70.
As to `CNc1cc(Nc2cccn(C3CCN(CCF)CC3)c2=O)nc2c(C(=O)NCC3(CO)CC3)cnn12` [I-846], the inhibition at 10 µM in test [1] (10 μM compound, 10 μM ATP) is < 50%; in test [2] (10 μM compound, 10 μM ATP) it was < 50%. The pKd in test [3] was > 9.70.
`CNc1cc(Nc2cccnc2C(C)(C)O)nc2c(C(=O)NC3CC3)cnn12` [I-306]: the inhibition at 10 µM in test [1] (compound at 10 μM, ATP 10 μM) is < 50%; in test [2] (compound at 10 μM, ATP 10 μM) it was < 50%. In test [3], this compound had a pKd of 8.00 to 9.00.
Take `Cc1cc(Nc2cc(N)n3ncc(C(N)=O)c3n2)c(=O)n(-c2ccnn2C)c1` [I-99]: the inhibition at 10 µM in test [1] (compound at 10 μM, ATP 10 μM) is < 50%; in test [2] (compound at 10 μM, ATP 10 μM), < 50%. This compound also gave a pKd in test [3] of 8.00 to 9.00.
For the compound `CNc1cc(Nc2cccn([C@@H]3CCCOC3)c2=O)nc2c(C(=O)N[C@H]3CC[C@@H]3O)cnn12` [I-698], the inhibition at 10 µM in test [1] (compound at 10 μM, ATP 10 μM) is < 50%; in test [2] (compound at 10 μM, ATP 10 μM), < 50%. Moreover, the pKd in test [3] is > 9.70.
Regarding `CNc1cc(Nc2cc(C)cn(-c3ccn(C)n3)c2=O)nc2c(C(N)=O)cnn12` [I-26], the inhibition at 10 µM in test [1] (compound at 10 μM, ATP 10 μM) is < 50%; in test [2] (compound at 10 μM, ATP 10 μM) it was < 50%. The pKd in test [3] was > 9.70.
For `CNc1cc(Nc2cccnc2OC2CN(CC(F)(F)F)C2)nc2c(C(=O)NC3CC3)cnn12` [I-367], the inhibition at 10 µM in test [1] (compound at 10 μM, ATP 10 μM) is < 50%; in test [2] (compound at 10 μM, ATP 10 μM), < 50%. The same compound had a pKd in test [3] of 9.00 to 9.70.
In the case of `CNc1cc(Nc2cc(Cl)cn(-c3cnn(C4CC4)c3C)c2=O)nc2c(C(N)=O)cnn12` [I-180], the inhibition at 10 µM in test [1] (compound at 10 μM, ATP 10 μM) was < 50%; in test [2] (compound at 10 μM, ATP 10 μM), < 50%. The pKd in test [3] is > 9.70.
As to `CNc1cc(Nc2cccn(C3CCCN(C)C3)c2=O)nc2c(C(=O)NC3CC3)cnn12` (stereo not drawn) [I-471], the inhibition at 10 µM was < 50% in test [1] (compound at 10 μM, ATP 10 μM) and < 50% in test [2] (compound at 10 μM, ATP 10 μM). This compound had a pKd in test [3] of 9.00 to 9.70.
Take `CNc1cc(Nc2cccn([C@@H]3CCCC[C@@H]3O)c2=O)nc2c(C(=O)NC3CC3)cnn12` [I-671]: the inhibition at 10 µM in test [1] (compound at 10 μM, ATP 10 μM) is < 50%; in test [2] (compound at 10 μM, ATP 10 μM), < 50%. The pKd in test [3] is > 9.70.
Take `CNc1cc(Nc2cccn([C@H]3CCC[C@H](OC)C3)c2=O)nc2c(C(=O)NCC3(CO)CC3)cnn12` [I-1086]: the “JAK2 JH1% Inhibition @ 10 μM” value in test [1] (10 μM compound, 10 μM ATP) was “A (percent inhibition at 10 μM lower than 50)”. Further, the “Tyk2 JH1% Inhibition @ 10 μM” value in test [2] (10 μM compound, 10 μM ATP) is listed as “A (percent inhibition at 10 μM lower than 50)”.
With `CNc1cc(Nc2cccn([C@@H]3CCCOC3)c2=O)nc2c(C(=O)N[C@H]3COC[C@H]3O)cnn12` [I-786], the “JAK2 JH1% Inhibition @ 10 μM” value in test [1] (compound at 10 μM, ATP 10 μM) was “A (percent inhibition at 10 μM lower than 50)”. Also, the “Tyk2 JH1% Inhibition @ 10 μM” value in test [2] (compound at 10 μM, ATP 10 μM) is recorded as “A (percent inhibition at 10 μM lower than 50)”.
Turning to `CNc1cc(Nc2cccn([C@H]3CCC[C@H](O)C3)c2=O)nc2c(C(=O)NC3CC3)cnn12` [I-821], the inhibition at 10 µM in test [1] (10 μM compound, 10 μM ATP) is < 50%; in test [2] (10 μM compound, 10 μM ATP), < 50%.
As for `CNc1cc(Nc2cccn(-c3cccc(F)c3)c2=O)nc2c(C(=O)N[C@H]3CC[C@H]3O)cnn12` [I-945], the inhibition at 10 µM was < 50% in test [1] (10 μM compound, 10 μM ATP) and < 50% in test [2] (10 μM compound, 10 μM ATP).
Regarding `CNc1cc(Nc2cccn(C(C)C)c2=O)nc2c(C(=O)N[C@H]3CCC[C@H](O)C3)cnn12` [I-919, 5-N-(3-hydroxycyclohexyl)-5-((1-isopropyl-2-oxo-1,2-dihydropyridin-3-yl)amino)-7-(methylamino)pyrazolo[1,5-a]pyrimidine-3-carboxamide], the “JAK2 JH1% Inhibition @ 10 μM” value in test [1] (10 μM compound, 10 μM ATP) was “A (percent inhibition at 10 μM lower than 50)”. For the same compound, the “Tyk2 JH1% Inhibition @ 10 μM” value in test [2] (10 μM compound, 10 μM ATP) was “A (percent inhibition at 10 μM lower than 50)”.
As for `CNc1cc(Nc2cccn([C@@H]3CCC[C@H](OC)C3)c2=O)nc2c(C(=O)N[C@@H]3CC[C@H]3O)cnn12` [I-994], the “JAK2 JH1% Inhibition @ 10 μM” value in test [1] (10 μM compound, 10 μM ATP) is “A (percent inhibition at 10 μM lower than 50)”. Besides, in test [2] (10 μM compound, 10 μM ATP), the “Tyk2 JH1% Inhibition @ 10 μM” value is on record as “A (percent inhibition at 10 μM lower than 50)”.
